Test results taken from the supplement of paper PMC10307832.

Legend:
Experiment in all cases: relative viability (nuclei count vs DMSO), 5 days (fraction); higher = more cells survive
[1] = compound: C/C(=N\NC(=S)N1CCC1)/C2=CC=CC=N2 + C[C@@H](Oc1cc(-c2cnn(C3CCNCC3)c2)cnc1N)c1c(Cl)ccc(F)c1Cl [Crizotinib] (partner 1 µM)
Procedure, shortened: (§1)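 Relative viability equals treated-well nuclei counts divided by vehicle-well nuclei counts. Counts came from 4× images of lung cancer cell lines grown in 1536-well plates for 5 days after pin-tool dosing on the day after seeding. Dosing used one drug alone or a fixed anchor-drug dose plus five library-drug doses (not always all listed) in √10 steps, and values are medians of duplicate plates.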

[2] = compound: C/C(=N\NC(=S)N1CCC1)/C2=CC=CC=N2 + Cc1cc(Nc2cc(N3CCN(C)CC3)nc(Sc3ccc(NC(=O)C4CC4)cc3)n2)n[nH]1 [Tozasertib] (partner 0.1 µM)
Procedure, shortened: as §1

[3] = compound: C/C(=N\NC(=S)N1CCC1)/C2=CC=CC=N2 + Nc1ncn([C@H]2C[C@H](O)[C@@H](CO)O2)c(=O)n1 [Decitabine] (partner 2 µM)
Procedure, shortened: as §1

[4] = compound: C/C(=N\NC(=S)N1CCC1)/C2=CC=CC=N2 + CS(=O)(=O)CCNCc1ccc(-c2ccc3ncnc(Nc4ccc(OCc5cccc(F)c5)c(Cl)c4)c3c2)o1 [Lapatinib] (partner 2 µM)
Procedure, shortened: as §1

Cell Line | relative viability ([1]; first compound 0.05 µM) | relative viability ([1]; first compound 0.1581 µM) | relative viability ([1]; first compound 0.5 µM) | relative viability ([1]; first compound 1.581 µM) | relative viability ([1]; first compound 5 µM) | relative viability ([2]; first compound 0.05 µM) | relative viability ([2]; first compound 0.1581 µM) | relative viability ([2]; first compound 0.5 µM) | relative viability ([2]; first compound 1.581 µM) | relative viability ([2]; first compound 5 µM) | relative viability ([3]; first compound 0.05 µM) | relative viability ([3]; first compound 0.1581 µM) | relative viability ([3]; first compound 0.5 µM) | relative viability ([3]; first compound 1.581 µM) | relative viability ([3]; first compound 5 µM) | relative viability ([4]; first compound 0.05 µM) | relative viability ([4]; first compound 0.1581 µM) | relative viability ([4]; first compound 0.5 µM) | relative viability ([4]; first compound 1.581 µM) | relative viability ([4]; first compound 5 µM)
NCI-H2085 | 0.269 | 0.236 | 0.25 | 0.219 | 0.225 | 0.372 | 0.366 | 0.388 | 0.315 | 0.315 | 0.255 | 0.324 | 0.358 | 0.309 | 0.376 | 0.341 | 0.365 | 0.335 | 0.271 | 0.325
NCI-H2087 | 0.323 | 0.274 | 0.284 | 0.187 | 0.171 | 0.0992 | 0.0962 | 0.114 | 0.0938 | 0.0874 | 0.136 | 0.0973 | 0.107 | 0.103 | 0.0802 | 0.196 | 0.268 | 0.224 | 0.195 | 0.143
NCI-H2126 | 0.671 | 1.01 | 0.226 | 0.187 | 0.146 | 0.174 | 0.167 | 0.193 | 0.162 | 0.19 | 0.292 | 0.599 | 0.222 | 0.226 | 0.247 | 0.242 | 0.272 | 0.249 | 0.236 | 0.241
NCI-H2170 | 1.12 | 1.09 | 0.269 | 0.183 | 0.162 | 0.659 | 0.334 | 0.197 | 0.113 | 0.141 | 0.374 | 0.434 | 0.22 | 0.199 | 0.14 | 0.24 | 0.2 | 0.203 | 0.192 | 0.188
NCI-H2347 | 0.557 | 0.438 | 0.322 | 0.233 | 0.302 | 0.173 | 0.254 | 0.177 | 0.244 | 0.258 | 0.363 | 0.335 | 0.34 | 0.349 | 0.367 | 0.401 | 0.394 | 0.324 | 0.294 | 0.541
NCI-H2405 | 0.26 | 0.29 | 0.307 | 0.25 | 0.258 | 0.24 | 0.286 | 0.266 | 0.239 | 0.253 | 0.284 | 0.246 | 0.24 | 0.239 | 0.246 | 0.251 | 0.236 | 0.263 | 0.25 | 0.281
NCI-H3122 | 0.151 | 0.171 | 0.185 | 0.171 | 0.176 | 0.0931 | 0.0762 | 0.0946 | 0.109 | 0.0776 | 0.0981 | 0.269 | 0.086 | 0.127 | 0.136 | 0.304 | 0.284 | 0.268 | 0.291 | 0.243
PC-3 [JPC-3] | 0.594 | 0.984 | 0.361 | 0.301 | 0.252 | 0.612 | 0.474 | 0.3 | 0.281 | 0.241 | 0.534 | 0.526 | 0.418 | 0.344 | 0.324 | 0.267 | 0.27 | 0.259 | 0.228 | 0.229
